Source: patent US20050153999A1, “Pharmaceutical compositions” (SCHERING CORPORATION, priority 2003, published 2005)
Structures can show the parent of a compound that is named as a salt. Where two headings read alike, the source gives them in different places. Blank lines part the entries; values can stand above or below the compound they belong to.

Experiment: Equilibrium solubility in aqueous solutions containing different concentrations of Captisol
Assay type: physicochemical
Conditions: aqueous solution containing Captisol, 20 °C, thermodynamic from solid, free form equivalent
Protocol: Captisol® improves the solubility of the compound of Formula I in free base form, HCl salt and tosylate salt. Solubility of the above compounds was determined by equilibrating the powder with aqueous solutions containing different concentration of Captisol® at ambient temperature (20° C.).
The solutions were prepared in accordance with methods known to one of skill in the art.

solubility (pH 5, aqueous buffer, Captisol 0 % w/v, pH 5 (NaOH adjusted), ambient temperature (20° C.), read-out: Solubility of Compound I HCl salt at pH 5 (pH adjusted by NaOH)): 50 µg/mL
solubility (pH 5, aqueous with cosolvent or surfactant or cyclodextrin, Captisol 2 % w/v, pH 5 (NaOH adjusted), ambient temperature (20° C.), read-out: Solubility of Compound I HCl salt at pH 5 (pH adjusted by NaOH)): 3500 µg/mL
solubility (pH 5, aqueous with cosolvent or surfactant or cyclodextrin, Captisol 5 % w/v, pH 5 (NaOH adjusted), ambient temperature (20° C.), read-out: Solubility of Compound I HCl salt at pH 5 (pH adjusted by NaOH)): 4700 µg/mL
solubility (pH 5, aqueous with cosolvent or surfactant or cyclodextrin, Captisol 10 % w/v, pH 5 (NaOH adjusted), ambient temperature (20° C.), read-out: Solubility of Compound I HCl salt at pH 5 (pH adjusted by NaOH)): 10000 µg/mL
SMILES: C[C@@H](OC[C@@]1(c2ccccc2)CC[C@]2(CCC(=O)N2)CN1)c1cc(C(F)(F)F)cc(C(F)(F)F)c1 [Compound I HCl salt]

solubility (pH 5, aqueous buffer, Captisol 0 % w/v, pH 5 (NaOH adjusted), 20° C., read-out: Solubility of Compound I Tosylate salt at pH 5 (pH adjusted by NaOH)): 150 µg/mL
solubility (pH 5, aqueous with cosolvent or surfactant or cyclodextrin, Captisol 10 % w/v, pH 5 (NaOH adjusted), 20° C., read-out: Solubility of Compound I Tosylate salt at pH 5 (pH adjusted by NaOH)): 940 µg/mL
solubility (pH 5, aqueous with cosolvent or surfactant or cyclodextrin, Captisol 20 % w/v, pH 5 (NaOH adjusted), 20° C., read-out: Solubility of Compound I Tosylate salt at pH 5 (pH adjusted by NaOH)): 1800 µg/mL
solubility (pH 5, aqueous with cosolvent or surfactant or cyclodextrin, Captisol 40 % w/v, pH 5 (NaOH adjusted), 20° C., read-out: Solubility of Compound I Tosylate salt at pH 5 (pH adjusted by NaOH)): 4100 µg/mL
SMILES: C[C@@H](OC[C@@]1(c2ccccc2)CC[C@]2(CCC(=O)N2)CN1)c1cc(C(F)(F)F)cc(C(F)(F)F)c1 [Compound I Tosylate salt]

solubility (pH 5.2, aqueous buffer, Captisol 0 % w/v, pH 5.2 citric acid buffered, 20° C., read-out: Solubility of Compound I free base at pH 5.2 (citric acid buffered)): 170 µg/mL
solubility (pH 5.2, aqueous with cosolvent or surfactant or cyclodextrin, Captisol 2 % w/v, pH 5.2 citric acid buffered, 20° C., read-out: Solubility of Compound I free base at pH 5.2 (citric acid buffered)): 2200 µg/mL
solubility (pH 5.2, aqueous with cosolvent or surfactant or cyclodextrin, Captisol 5 % w/v, pH 5.2 citric acid buffered, 20° C., read-out: Solubility of Compound I free base at pH 5.2 (citric acid buffered)): 4600 µg/mL
solubility (pH 5.2, aqueous with cosolvent or surfactant or cyclodextrin, Captisol 10 % w/v, pH 5.2 citric acid buffered, 20° C., read-out: Solubility of Compound I free base at pH 5.2 (citric acid buffered)): 7200 µg/mL
solubility (pH 5.2, aqueous with cosolvent or surfactant or cyclodextrin, Captisol 20 % w/v, pH 5.2 citric acid buffered, 20° C., read-out: Solubility of Compound I free base at pH 5.2 (citric acid buffered)): 12000 µg/mL
solubility (pH 7.2, aqueous buffer, Captisol 0 % w/v, pH 7.2 phosphate buffered, 20° C., read-out: Solubility of Compound I free base at pH 7.2 (phosphate buffered)): 2 µg/mL
solubility (pH 7.2, aqueous with cosolvent or surfactant or cyclodextrin, Captisol 2 % w/v, pH 7.2 phosphate buffered, 20° C., read-out: Solubility of Compound I free base at pH 7.2 (phosphate buffered)): 50 µg/mL
solubility (pH 7.2, aqueous with cosolvent or surfactant or cyclodextrin, Captisol 5 % w/v, pH 7.2 phosphate buffered, 20° C., read-out: Solubility of Compound I free base at pH 7.2 (phosphate buffered)): 150 µg/mL
solubility (pH 7.2, aqueous with cosolvent or surfactant or cyclodextrin, Captisol 10 % w/v, pH 7.2 phosphate buffered, 20° C., read-out: Solubility of Compound I free base at pH 7.2 (phosphate buffered)): 290 µg/mL
solubility (pH 7.2, aqueous with cosolvent or surfactant or cyclodextrin, Captisol 20 % w/v, pH 7.2 phosphate buffered, 20° C., read-out: Solubility of Compound I free base at pH 7.2 (phosphate buffered)): 610 µg/mL
SMILES: C[C@@H](OC[C@@]1(c2ccccc2)CC[C@]2(CCC(=O)N2)CN1)c1cc(C(F)(F)F)cc(C(F)(F)F)c1 [Compound I free base]
